The results in this text go back to US10363257B2 (ZENITH EPIGENETICS LTD., priority 2013, dated 2019).

Test [1] deals with T1, Brd4 bromodomain 1 (BRD4(1)) (Homo sapiens, UniProt O60885).
T1 construct: made in house; host or cells: E. coli BL21(DE3)
Description: Inhibition of tetra-acetylated histone H4 binding to Brd4 bromodomain 1 (TR-FRET). As to conditions: tetra-acetylated histone H4 peptide, first bromodomain of Brd4. An outline of the steps:
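His-tagged BRD4(1) from E. coli (200 nM) with biotinylated tetra-acetylated H4 peptide (25-50 nM), Eu-cryptate streptavidin and XL665 anti-His, in HEPES pH 7.4/phosphate/KF buffer, 0.2% DMSO. After 2 h at room temperature, TR-FRET 665/620 nm ratio read; IC50 from dose-response curves.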

Test [2] concerns hIL-17 mRNA. The test can be described thus: Inhibition of hIL-17 mRNA transcription in OKT3-stimulated peripheral blood mononuclear cells. In kind it is cell-based. The conditions noted are these: PBMC, human peripheral blood mononuclear cells, OKT3 antibody, 6 h, read-out: IL-17 activity. As to the method:
In this example, hIL-17 mRNA in human peripheral blood mononuclear cells was quantitated to measure the transcriptional inhibition of hIL-17 when treated with a compound of the invention.
Human peripheral blood mononuclear cells were plated (2.0×10^5 cells per well) in a 96-well plate in 45 μL OpTimizer T Cell expansion media containing 20 ng/ml IL-2 and penicillin/streptomycin. The cells were treated with the test compound (45 μL at 2× concentration), and then the cells were incubated at 37° C. for 1 h before addition of 10× stock OKT3 antibody at 10 μg/ml in media. Cells were incubated at 37° C. for 6 h before the cells were harvested. At time of harvest, cells were centrifuged (800 rpm, 5 min). Spent media was removed and cell lysis solution (70 μL) was added to the cells in each well and incubated for 5-10 min at room temperature, to allow for complete cell lysis and detachment. mRNA was then prepared using the “mRNA Catcher PLUS plate” (Invitrogen), according to the protocol supplied. After the last wash, as much wash buffer as possible was aspirated without allowing the wells to dry. Elution buffer (E3, 70 μL) was then added to each well. mRNA was then eluted by incubating the mRNA Catcher PLUS plate with Elution Buffer for 5 min at 68° C. and then immediately placing the plate on ice.
The eluted mRNA isolated was then used in a one-step quantitative RT-PCR reaction, using components of the Ultra Sense Kit together with Applied Biosystems primer-probe mixes. Real-time PCR data was analyzed, normalizing the Ct values for hIL-17 to an internal control, prior to determining the fold induction of each unknown sample, relative to the control.

Test [3] has as its system c-myc. Description: Inhibition of c-myc expression (mRNA, real-time PCR) in MV4-11 cells. In kind it is cell-based. The conditions noted are these: Human AML MV4-11 cells, 3 h, cMYC mRNA. An outline of the steps: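 MV4-11 cells treated 3 h at 37° C with increasing compound concentrations or 0.1% DMSO, in triplicate. cMYC mRNA quantified by one-step TaqMan real-time PCR, Ct normalized to internal control (Cyclophilin primers used), fold expression relative to control.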

Test [4] concerns human AML MV-4-11 cells. Description: Inhibition of cell proliferation in MV4-11 cells (CellTiter Aqueous One). In kind it is cell-based. As to conditions: for IC50: MV4-11, 72 h. An outline of the steps:
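Exponentially growing MV-4-11 cells (5×10^4/well) were treated immediately with two-fold dilutions of compound from 30 μM to 0.2 μM, in triplicate, for 72 h at 37° C, 5% CO2. Viability was measured by MTS absorbance at 490 nm after 3–4 h. Proliferation relative to DMSO after blank correction gave IC50.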

Test [5] deals with hIL-6 mRNA. The test can be described thus: Inhibition of hIL-6 mRNA transcription in LPS-stimulated U937 cells. In kind it is cell-based. The conditions noted are these: Homo sapiens, U-937; PMA-differentiated U937 cells, 1 h pretreatment, 1 ug/mL LPS stimulation, 3 h; read-out: IL-6 activity (Inhibition of hIL-6 mRNA Transcription). An outline of the steps:
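U937 cells differentiated 3 days with 60 ng/mL PMA, pretreated 1 h with compound (0.1% DMSO), then stimulated with 1 ug/mL E. coli LPS for 3 h at 37 °C. hIL-6 mRNA measured by one-step TaqMan RT-qPCR, normalized to cyclophilin. Fold expression relative to control; triplicate wells.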

As to `Cc1noc(C)c1-c1cnc2nc(C)n(Cc3ccccc3)c2c1` [Example Compound 13, 4-(1-benzyl-2-methyl-1H-imidazo[4,5-b]pyridin-6-yl)-3,5-dimethylisoxazole], the IC50 in test [1] was no more than 300 nM; in test [2], 300 to 3000 nM; in test [3], 300 to 3000 nM; in test [4], 300 to 3000 nM; in test [5] it was no more than 300 nM.

As for `Cc1noc(C)c1-c1cc(N)c2[nH]c(=O)n(Cc3ccccc3)c2c1` [Example Compound 16, 4-amino-1-benzyl-6-(3,5-dimethylisoxazol-4-yl)-1H-benzo[d]imidazol-2(3H)-one], the IC50 in test [1] was no more than 300 nM; in test [2], 300 to 3000 nM; in test [3], no more than 300 nM; in test [4], no more than 300 nM; in test [5] it was no more than 300 nM.

`Cc1noc(C)c1-c1cc(N)c2nc(C)n(Cc3ccccc3)c2c1` [Example Compound 55, 1-benzyl-6-(3,5-dimethylisoxazol-4-yl)-2-methyl-1H-benzo[d]imidazol-4-amine]: the IC50 in test [1], in test [2], in test [3], in test [4] and in test [5] was no more than 300 nM in each case.

Turning to `Cc1noc(C)c1-c1cnc2ncn(Cc3ccc(F)cc3)c2c1` [Example Compound 45, 4-(1-(4-fluorobenzyl)-1H-imidazo[4,5-b]pyridin-6-yl)-3,5-dimethylisoxazole], the IC50 in test [1] was no more than 300 nM; in test [2], 300 to 3000 nM; in test [3] it was 300 to 3000 nM; in test [4] it was 300 to 3000 nM; in test [5] it was 300 to 3000 nM.

Take `Cc1noc(C)c1-c1cnc2ncn(C(C)c3ccccc3)c2c1` (stereo not shown) [Example Compound 30]: the IC50 in test [1] was no more than 300 nM; in test [2], 300 to 3000 nM; in test [3], 300 to 3000 nM; in test [4], 300 to 3000 nM; in test [5] it was 300 to 3000 nM.

On to `Cc1noc(C)c1-c1cc(N)c2c(c1)ncn2Cc1ccccc1` [Example Compound 8, 1-Benzyl-5-(3,5-dimethylisoxazol-4-yl)-1H-benzo[d]imidazol-7-amine], for which the IC50 in test [1] was no more than 300 nM; in test [2] it was 300 to 3000 nM; in test [3], 300 to 3000 nM; in test [4], 300 to 3000 nM; in test [5], 300 to 3000 nM.

Regarding `Cc1noc(C)c1-c1cnc2[nH]c(=O)n(Cc3ccc(Cl)cc3)c2c1` [compound 105, 1-(4-chlorobenzyl)-6-(3,5-dimethylisoxazol-4-yl)-1H-imidazo[4,5-b]pyridin-2(3H)-one], the IC50 in test [1] is no more than 300 nM; in test [2], 300 to 3000 nM; in test [3], 300 to 3000 nM; in test [4], 300 to 3000 nM; in test [5] it was 300 to 3000 nM.

For the molecule `CCNc1nc2c(N)cc(-c3c(C)noc3C)cc2n1Cc1ccccc1` [Example Compound 19, 1-benzyl-6-(3,5-dimethylisoxazol-4-yl)-N^2-ethyl-1H-benzo[d]imidazole-2,4-diamine], the IC50 in test [1], in test [2], in test [3], in test [4] and in test [5] was no more than 300 nM throughout.

With `Cc1noc(C)c1-c1cnc2[nH]c(=O)n(Cc3cccs3)c2c1` [compound 106, 6-(3,5-dimethylisoxazol-4-yl)-1-(thiophen-2-ylmethyl)-1H-imidazo[4,5-b]pyridin-2(3H)-one], the IC50 was no more than 300 nM in test [1]; 300 to 3000 nM in test [2]; 300 to 3000 nM in test [3]; 300 to 3000 nM in test [4]; 300 to 3000 nM in test [5].

On to `Cc1noc(C)c1-c1cnc2[nH]c(=O)n(C(C)c3ccccc3)c2c1` (stereo not shown) [compound 112, 6-(3,5-dimethylisoxazol-4-yl)-1-(1-phenylethyl)-1H-imidazo[4,5-b]pyridin-2(3H)-one], for which the IC50 in test [1] is no more than 300 nM; in test [2], no more than 300 nM; in test [3], no more than 300 nM; in test [4] it was 300 to 3000 nM; in test [5], 300 to 3000 nM.

As for `Cc1noc(C)c1-c1cnc2c(C)nn(Cc3ccc(F)cc3)c2c1` [Example Compound 53, 4-(1-(4-fluorobenzyl)-3-methyl-1H-pyrazolo[4,3-b]pyridin-6-yl)-3,5-dimethylisoxazole], the IC50 in test [1] is no more than 300 nM; in test [2], 3000 to 30000 nM; in test [5], 300 to 3000 nM. The “Cell Proliferation activity” value in test [4] (72 h) is “Not active”.

Regarding `Cc1noc(C)c1-c1cnc2[nH]c(=O)n(Cc3ccccc3)c2c1` [Example Compound 10, 1-Benzyl-6-(3,5-dimethylisoxazol-4-yl)-1H-imidazo[4,5-b]pyridin-2(3H)-one], the IC50 is no more than 300 nM in test [1]; no more than 300 nM in test [2]; 300 to 3000 nM in test [3]; 300 to 3000 nM in test [4]; no more than 300 nM in test [5].

For `Cc1noc(C)c1-c1cnc2ncn(Cc3ccccc3)c2c1` [Example Compound 5, 4-(1-Benzyl-1H-imidazo[4,5-b]pyridin-6-yl)-3,5-dimethylisoxazole], the IC50 in test [1] was no more than 300 nM; in test [2] it was 300 to 3000 nM; in test [3], 300 to 3000 nM; in test [4] it was 300 to 3000 nM; in test [5], 300 to 3000 nM.

As to `Cc1noc(C)c1-c1cnc2cnn(Cc3ccc(F)cc3)c2c1` [Example Compound 51, 4-(1-(4-fluorobenzyl)-1H-pyrazolo[4,3-b]pyridin-6-yl)-3,5-dimethylisoxazole], the IC50 was no more than 300 nM in test [1]; 300 to 3000 nM in test [2]; 300 to 3000 nM in test [3]; 300 to 3000 nM in test [4]; 300 to 3000 nM in test [5].

`CCNc1nc2c([N+](=O)[O-])cc(-c3c(C)noc3C)cc2n1Cc1ccccc1` [Example Compound 18, 1-benzyl-6-(3,5-dimethylisoxazol-4-yl)-N-ethyl-4-nitro-1H-benzo[d]imidazol-2-amine]: the IC50 in test [1] was no more than 300 nM; in test [2], 300 to 3000 nM; in test [3], no more than 300 nM; in test [4] it was no more than 300 nM; in test [5] it was 300 to 3000 nM.

For the molecule `CC(=O)Nc1cc(-c2c(C)noc2C)cc2c1nc(C)n2Cc1ccccc1` [Example Compound 64, N-(1-benzyl-6-(3,5-dimethylisoxazol-4-yl)-2-methyl-1H-benzo[d]imidazol-4-yl)acetamide], the IC50 is no more than 300 nM in test [1]; no more than 300 nM in test [2]; no more than 300 nM in test [3]; 300 to 3000 nM in test [4]; no more than 300 nM in test [5].
